Series [1] in a line: Cold pressor test (analgesic effect) in healthy volunteers. Conditions: 3-60 mg single oral doses vs placebo, 1° C. water. It is filed as in vivo, human. The procedure: Analgesic effect was assessed based on duration of hand immersion in ice water and on visual analog scale (VAS) pain scores upon hand removal from the water bath.
Safety and tolerability of noribogaine were tested in the group of volunteers from Example 1. Cold pressor testing was conducted in 1° C. water according to the method of Mitchell et al. (J Pain 5:233-237, 2004) pre-dose, 6, 24, 48, 72 and 216 hours post-dosing. Safety evaluations included clinical monitoring, recording of adverse events (AEs), safety laboratory tests, vital signs, ECG telemetry from −2 h to 6 h after dosing, and 12-lead electrocardiograms (ECGs) up to 216 hours post-dosing.

Series [2] can be described thus: Plasma noribogaine pharmacokinetics after ascending single oral doses in healthy volunteers. The format is in vivo, human. The settings on record: for mean AUC/24 hr / mean AUC/24: fasting, serum; for CL/F: fasted healthy volunteers, mean (SD), n = 6. The text has this: Thirty-six healthy, drug-free male volunteers, aged between 18-55 years, were enrolled in and completed the study. This was an ascending single-dose, placebo-controlled, randomized double blind, parallel group study. Mean (SD) age was 22.0 (3.3) years, mean (SD) height was 1.82 (0.08) m, and mean (SD) weight was 78.0 (9.2) kg. Twenty-six subjects were Caucasian, 3 were Asian, 1 Maori, 1 Pacific Islander, and 5 Other. The protocol for this study was approved by the Lower South Regional Ethics Committee (LRS/12/06/015), and the study was registered with the Australian New Zealand Clinical Trial Registry (ACTRN12612000821897). All subjects provided signed informed consent prior to enrolment, and were assessed as suitable to participate based on review of medical history, physical examination, safety laboratory tests, vital signs and ECG.
Within each dose level, 6 participants were randomized to receive noribogaine and 3 to receive placebo, based on a computer-generated random code. Dosing began with the lowest noribogaine dose, and subsequent cohorts received the next highest dose after the safety, tolerability, and blinded pharmacokinetics of the completed cohort were reviewed and dose-escalation approved by an independent Data Safety Monitoring Board. Blinded study drug was administered as a capsule with 240 ml of water after an overnight fast of at least 10 hours. […] Participants were confined to the study site from 12 hours prior to drug administration, until 72 hours post-dose, and there were subsequent outpatient assessments until 216 hours post-dose.
Blood was obtained for pharmacokinetic assessments pre-dose and then at 0.25, 0.5, 0.75, 1.0, 1.25, 1.5, 2, 2.5, 3, 3.5, 4, 4.5, 5, 5.5, 6, 7, 8, 10, 12, 14, 18, 24, 30, 36, 48, 60, 72, 96, 120, 168 and 216 hours post-dose. Samples were centrifuged and plasma stored at −70° C. until analyzed. Block 24 hour urine collections were obtained following study drug administration for the 30 and 60 mg cohorts. Aliquots were frozen at −20° C. until analyzed.
Plasma noribogaine concentrations were determined in the 3 mg and 10 mg dose groups using a validated, sensitive LCMSMS method. Sample preparation involved double extraction of basified plasma samples with tert-butyl methyl ether, drying the samples under a stream of nitrogen and reconstitution of sample with acetonitrile:B.P. water (5:95, v/v) containing 0.1% (v/v) formic acid. The compounds were separated by a 150×2.0 mm Luna 5 μm C18 column and detected with a triple-quadrupole API 4000 or 5000 mass spectrometer using electrospray ionization in positive mode and multiple reaction monitoring. Noribogaine-d4 was used as the internal standard. The precursor-product ion transition values for noribogaine were m/z 297.6→122.3, and for the internal standard noribogaine-d4 m/z 301.1→122.2. Analyst® software was used for data acquisition and processing. The ratio of the peak area of noribogaine to the internal standard noribogaine-d4 was used for calibration and measurement of the unknown concentration of noribogaine. The lower limit of quantification (LLOQ) was 0.025 ng/ml noribogaine. The calibration curve was between 0.025 and 25.600 ng/ml noribogaine. Mobile phase A was acetonitrile:B.P. water (5:95, v/v) containing 0.1% (v/v) formic acid, and mobile phase B was acetonitrile:B.P. water (95:5, v/v) containing 0.1% (v/v) formic acid. Total run time was 6 minutes. Binary flow: Initial concentration was 8% mobile phase B; hold at 8% mobile phase B for 0.5 minutes and linear rise to 90% mobile phase B over 1.5 minutes; hold at 90% mobile phase B for 1 minute and then drop back to 8% mobile phase B over 0.01 minute. Equilibrate system for 3 minutes. Total run time was 6 minutes. Within- and between-day assay precision was <9%, and within- and between-day assay accuracy was <9%.
Plasma noribogaine concentrations were determined in the 30 mg and 60 mg dose groups using a validated, sensitive LCMSMS method. […]

Series [3] can be described thus: Serum noribogaine pharmacokinetics in opioid-dependent patients (Phase IB). The settings on record: 60, 120, 180 mg cohorts.
Series [4] can be described thus: QT interval evaluation in opioid-dependent patients. It is filed as in vivo, human. Conditions: 60, 120, 180 mg, first 24 hours post administration. The procedure: Patients' QT intervals were evaluated at regular time points throughout the study.

As for `CC[C@H]1CC2C[C@H]3c4[nH]c5ccc(O)cc5c4CCN(C2)C13` [Noribogaine, noribogaine], the “analgesic effect in the cold pressor test (duration of hand immersion, VAS pain scores)” value in series [1] is listed as “no analgesic effect”. Moreover, in series [2] (3-60 mg single oral doses, healthy volunteers), the “Dose-proportionality of Cmax and AUC” value was “increased linearly with dose”. Also, the “time of peak concentrations after oral dosing” value in series [2] (across 3-60 mg dose groups, healthy volunteers) lay within 2 to 3 h. For the same compound, the Mean half-life estimates in series [2] (across dose groups (3-60 mg), healthy volunteers) is 28 to 50 h. Further, the “mean AUC/24 hr” value came out at 3.1 ng/mL in series [2] (single dose of 3 mg free base) and 10.6 ng/mL in series [2] (single dose of 10 mg free base). Moreover, the results for the “mean AUC/24” value in series [2] (single dose of 30 mg free base) and in series [2] (single dose of 60 mg free base) were 29.2 ng/mL and 61 ng/mL, respectively. Besides, the CL/F was 41.4 (7.0) L/h in series [2] (single oral 3 mg dose), 42.3 (12.0) L/h in series [2] (single oral 10 mg dose), 46.9 (16.4) L/h in series [2] (single oral 30 mg dose) and 34.0 (11.4) L/h in series [2] (single oral 60 mg dose). In series [3], the “dose dependence of maximum serum concentration (Cmax)” value is reported as “increased in a dose-dependent manner”. Moreover, the “QT interval prolongation (ΔQTcl)” value in series [4] is listed as “dose-dependent increase in QT interval prolongation”.

(Values after US9549935B2, “Methods and compositions for treating migraines using noribogaine” (DemeRx, Inc., priority 2014, dated 2017).)
